Measurements taken from US20060128737A1, “Androgen receptor agonists” (KAKEN PHARMACEUTICAL CO., LTD., priority 2003, published 2006).

What was measured:
Type in all cases: in vivo, rat
[1] = system: orchiectomized (ORX) rats; test: Test Example 3: effect on prostate, levator ani muscle and femoral bone mineral density in ORX rats (subcutaneous); conditions: for Femoral bone mineral density / Weight of levator ani muscle / Weight of prostate: 5 days a week, 4 weeks
Description: (§1) Testes were removed from 12-week-old male SD rats. Starting on the next day, the compound of Example 12 or 65 (30 mg/kg) or DHT (0.1, 1, 10 mg/kg) was subcutaneously administered once daily for four consecutive weeks on a 5-day-a-week basis. The Example compounds and DHT were dissolved in dimethyl sulfoxide and diluted 10-fold with olive oil to prepare solutions with various concentrations for use in the test. In an ORX control group, dimethyl sulfoxide as diluted 10-fold with olive oil was used for the test. Rats which had been falsely operated on without orchiectomy were used as a sham control group. On the next day after final administration, the wet weights of the ventral prostate and levator ani muscle were measured and the right femoral bone mineral density was measured by DEXA (double energy X-ray absorption) to evaluate the in vivo efficacy of the compounds of Example 12 and 65.

[2] = system: orchiectomized (ORX) rats; test: Test Example 6: effect of oral administration on prostate, levator ani muscle and femoral bone mineral density in ORX rats; conditions: for Femoral bone mineral density / Weight of levator ani muscle / Weight of prostate: 7 days a week
Description: (§2) Testes were removed from 12-week-old male SD rats. Starting on the next day, the compound of Example 108 (30 mg/5 ml/kg) was orally administered once daily for four consecutive weeks on a 7-day-a-week basis. As a positive control, methyl testosterone (MT) (100 mg/5 ml/kg) was orally administered once daily on a continuous 7-day-a-week basis. The test compound was suspended in a 0.5% methyl cellulose solution used as a solvent and the suspension was used in the test. In an ORX control group, a 0.5% methyl cellulose solution (5 ml/kg) was administered. Rats which had been falsely operated on without orchiectomy were used as a sham control group. On the next day after final administration, the wet weights of the ventral prostate and levator ani muscle were measured and the right femoral bone mineral density was measured by DEXA (double energy X-ray absorption) to evaluate the in vivo efficacy of the compound of Example 108. The results are shown in Table 20 and in FIGS. 13 to 15.

[3] = system: orchiectomized (ORX) rats; test: Test Example 7: effect of oral administration on prostate, levator ani muscle and femoral bone mineral density in ORX rats; conditions: for Femoral bone mineral density / Weight of levator ani muscle / Weight of prostate: 7 days a week
Description: as §2, with “129” for “108”, “129.” for “108.”, “21” for “20”, “16” for “13”, “18.” for “15.”

[4] = system: orchiectomized (ORX) rats; test: Test Example 2: effect on prostate, levator ani muscle and femoral bone mineral density in ORX rats (subcutaneous); conditions: for Femoral bone mineral density / Weight of levator ani muscle / Weight of prostate: 5 days a week, 4 weeks
Description: as §1, with “1 (3, 10, 30” for “12 or 65 (30”, “compound” for “compounds”, “1.” for “12 and 65.”

[5] = system: orchiectomized (ORX) rats; test: Test Example 4: effect on prostate, levator ani muscle and femoral bone mineral density in ORX rats (subcutaneous)
Description: as §1, with “Example 113” for “Example 12”, “or 114” for “or 65”, “DHT (10” for “DHT (0.1, 1, 10”, “test. […]” for “test. Rats which had been falsely operated on without orchiectomy were used as a sham control group.”, “and 114.” for “and 65.”

[6] = system: orchiectomized (ORX) rats; test: Test Example 5: effect of oral administration on prostate, levator ani muscle and femoral bone mineral density in ORX rats
Description: Testes were removed from 12-week-old male SD rats. Starting on the next day, the compound of Example 1 (100 mg/10 ml/kg) was orally administered once daily for four consecutive weeks on a 5-day-a-week basis. As a positive control, testosterone propionate (TP) (10 mg/kg) was subcutaneously administered once daily on a continuous 5-day-a-week basis. The test compound was suspended in a 0.5% methyl cellulose solution used as a solvent whereas TP was dissolved in dimethyl sulfoxide and diluted 10-fold with olive oil for use in the test. In an ORX control group, dimethyl sulfoxide as diluted 10-fold with olive oil was used for the test. Rats which had been falsely operated on without orchiectomy were used as a sham control group. On the next day after final administration, the wet weights of the ventral prostate and levator ani muscle were measured and the right femoral bone mineral density was measured by DEXA (double energy X-ray absorption) to evaluate the in vivo efficacy of the compound of Example 1. The results are shown in Table 19 and in FIGS. 10 to 12.

[7] = 30 mg/kg orally once daily, 4 weeks
[8] = 10 mg/kg sc once daily, 5 days a week, 4 weeks
[9] = 10 mg/kg sc once daily, 5 days a week

CC(C)(CNC(=O)c1ccc(OC(F)(F)F)cc1)[C@H]1Nc2ccc([N+](=O)[O-])cc2[C@H]2OCC[C@H]21 (relative stereo) [Example 65, (3aS*,4S*,9bS*)-N-[2-methyl-2-(8-nitro-2,3,3a,4,5,9b-hexahydro-furo[3,2-c]quinolin-4-yl)propyl]-4-trifluoromethoxybenzamide]
Prostate weight as % of the level of the sham control group ([1]; 30 mg/kg sc): about 70% | Femoral bone mineral density ([1]; 30 mg/kg sc once daily): 120 ± 5 mg/cm^2 | Weight of levator ani muscle ([1]; 30 mg/kg sc once daily): 67 ± 6 mg/100 g body weight | Weight of prostate ([1]; 30 mg/kg sc once daily): 69 ± 10 mg/100 g body weight

CC(=O)Nc1ccc(C(=O)NCC(C)(C)[C@H]2Nc3ccc(C#N)cc3[C@H]3C=CC[C@H]32)cn1 (relative stereo) [Example 108, (3aR*,4S*,9bS*)-6-acetylamino-N-[2-(8-cyano-3a,4,5,9b-tetrahydro-3H-cyclopenta[c]quinolin-4-yl)-2-methyl-propyl]nicotinamide]
Prostate weight as % of the level of the sham control group ([2]; 30 mg/kg orally): about 70% | Femoral bone mineral density [2, 7]: 141 ± 6 mg/cm^2 | Weight of levator ani muscle [2, 7]: 61 ± 6 mg/100 g body weight | Weight of prostate [2, 7]: 67 ± 13 mg/100 g body weight

CC(=O)Nc1ccc(C(=O)NCC(C)[C@H]2Nc3ccc(C#N)cc3[C@H]3OCC[C@H]32)cc1 (relative stereo) [Example 129, (3aS*,4R*,9bS*)-4-acetylamino-N-[2-(8-cyano-2,3,3a,4,5,9b-hexahydro-furo[3,2-c]quinolin-4-yl)propyl]benzamide]
Prostate weight as % of the level of the sham control group ([3]; 30 mg/kg orally): about 85% | Femoral bone mineral density [3, 7]: 145 ± 5 mg/cm^2 | Weight of levator ani muscle [3, 7]: 66 ± 6 mg/100 g body weight | Weight of prostate [3, 7]: 109 ± 66 mg/100 g body weight

C[C@]12CCC(=O)C[C@@H]1CC[C@@H]1[C@@H]2CC[C@]2(C)[C@@H](O)CC[C@@H]12 [DHT, Dihydrotestosterone, reference compound]
Femoral bone mineral density ([4]; 0.1 mg/kg sc once daily): 114 ± 6 mg/cm^2 | Weight of levator ani muscle ([4]; 0.1 mg/kg sc once daily): 39 ± 9 mg/100 g body weight | Weight of prostate ([4]; 0.1 mg/kg sc once daily): 38 ± 7 mg/100 g body weight | Femoral bone mineral density ([4]; 1 mg/kg sc once daily): 115 ± 4 mg/cm^2 | Weight of levator ani muscle ([4]; 1 mg/kg sc once daily): 58 ± 5 mg/100 g body weight | Weight of prostate ([4]; 1 mg/kg sc once daily): 100 ± 9 mg/100 g body weight | Prostate weight as % of the level of the sham control group ([4]; 10 mg/kg sc): about 160% | Femoral bone mineral density ([4]; 10 mg/kg sc once daily): 122 ± 3 mg/cm^2 | Weight of levator ani muscle ([4]; 10 mg/kg sc once daily): 78 ± 6 mg/100 g body weight | Weight of prostate ([4]; 10 mg/kg sc once daily): 166 ± 26 mg/100 g body weight | Prostate weight as % of the level of the sham control group ([5]; 10 mg/kg sc): about 140% | Femoral bone mineral density [5, 8]: 148 ± 5 mg/cm^2 | Weight of levator ani muscle [5, 8]: 89 ± 7 mg/100 g body weight | Weight of prostate [5, 8]: 199 ± 27 mg/100 g body weight | Femoral bone mineral density ([1]; 0.1 mg/kg sc once daily): 114 ± 6 mg/cm^2 | Weight of levator ani muscle ([1]; 0.1 mg/kg sc once daily): 37 ± 6 mg/100 g body weight | Weight of prostate ([1]; 0.1 mg/kg sc once daily): 34 ± 11 mg/100 g body weight | Femoral bone mineral density ([1]; 1 mg/kg sc once daily): 115 ± 4 mg/cm^2 | Weight of levator ani muscle ([1]; 1 mg/kg sc once daily): 47 ± 3 mg/100 g body weight | Weight of prostate ([1]; 1 mg/kg sc once daily): 81 ± 15 mg/100 g body weight | Prostate weight as % of the level of the sham control group ([1]; 10 mg/kg sc): about 145% | Femoral bone mineral density ([1]; 10 mg/kg sc once daily): 122 ± 3 mg/cm^2 | Weight of levator ani muscle ([1]; 10 mg/kg sc once daily): 80 ± 5 mg/100 g body weight | Weight of prostate ([1]; 10 mg/kg sc once daily): 146 ± 16 mg/100 g body weight

C[C@]12CCC(=O)C=C1CC[C@@H]1[C@@H]2CC[C@@]2(C)[C@H]1CC[C@]2(C)O [MT, methyl testosterone, reference compound]
Prostate weight as % of the level of the sham control group ([2]; 100 mg/kg orally): about 120% | Femoral bone mineral density ([2]; 100 mg/kg orally once daily): 146 ± 5 mg/cm^2 | Weight of levator ani muscle ([2]; 100 mg/kg orally once daily): 65 ± 8 mg/100 g body weight | Weight of prostate ([2]; 100 mg/kg orally once daily): 117 ± 18 mg/100 g body weight | Prostate weight as % of the level of the sham control group ([3]; 100 mg/kg orally): about 115% | Femoral bone mineral density ([3]; 100 mg/kg orally once daily): 149 ± 6 mg/cm^2 | Weight of levator ani muscle ([3]; 100 mg/kg orally once daily): 63 ± 5 mg/100 g body weight | Weight of prostate ([3]; 100 mg/kg orally once daily): 143 ± 63 mg/100 g body weight

CCC(=O)O[C@H]1CC[C@H]2[C@@H]3CCC4=CC(=O)CC[C@]4(C)[C@H]3CC[C@]12C [TP, testosterone propionate, reference compound]
Prostate weight as % of the level of the sham control group ([6]; 10 mg/kg sc): about 125% | Femoral bone mineral density [6, 9]: 135 ± 8 mg/cm^2 | Weight of levator ani muscle [6, 9]: 88 ± 9 mg/100 g body weight | Weight of prostate [6, 9]: 204 ± 29 mg/100 g body weight
